# Data from patent US6338854B1, “Photoaging skin-care preparation and method of treating wrinkled skin” (Pola Chemical Industries, Inc., priority 1996, dated 2002).
# Tests used:
# Format in all cases: in vivo
# Hartley guinea pigs [1] = assay: Allergy test (maximization method); conditions: skin reaction 24 hours after patch removal, scale 0-4
# Source text: Allergy tests of benzyl ursolate, methoxybenzyl oleanolate, phenylbenzyl betulate, benzoyl oleanolate, methoxybenzoyl betulate, and phenylpropionyl ursolate obtained in the above-described Production Examples were made using Hartley guinea pigs (300 to 500 g, female) as test animals.
# For test groups each consisting of 6 guinea pigs were applied each an aromatic compound derivative of triterpenoid to a concentration of 3 w/v % in olive oil, an aromatic compound derivative of triterpenoid to a concentration of 0.3 w/v % in olive oil, and neat olive oil, respectively, by a maximization method to perform sensitization induction.
# Thereafter, in order to induce sufficient immunoresponse, after a grace period of 10 days from the day when the final sensitization was made, there was applied to the back skin of each guinea pig a patch plate having 1.5 cm diameter coated with 100 μl of an aromatic compound derivative of triterpenoid to a concentration of 3 w/v % in olive oil, an aromatic compound derivative of triterpenoid to a concentration of 0.3 w/v % in olive oil, or neat olive oil, and the patch plate was removed after 24 hours. The resulting skin reaction after 24 hours from the removal of the patch plate was evaluated according to the following evaluation criteria and an average score was calculated for each test group.
# (§1) 0: No skin reaction being observed
# (§2) 1: Weak or unclearly bordered erythema
# (§3) 3: Reaction accompanying edema
# (§4) 4: Reaction of ulcer, necrosis, or the like
# [2] = tested on: wrinkles on the back skin due to photoaging, hairless mice; assay: UV wrinkle model amelioration test; conditions: 9 weeks, 10 mice; for Number of Mice (number) +: +: Wrinkle-ameliorating effect was observed; for Number of Mice (number) ±: ±: Slight wrinkle-ameliorating effect; for Number of Mice (number) −: −: No wrinkle-ameliorating effect
# Experimental: UV wrinkle model amelioration tests were conducted with the benzyl ursolate, methoxybenzyl oleanolate, phenylbenzyl betulate, benzoyl oleanolate, methoxybenzoyl betulate, and phenylpropionyl ursolate obtained in the above described Production Examples on hairless mice (5-week old, female) as test animals.
# UVB (60 mJ/cm^2) was irradiated to the back skin of each animal of a test group consisting of 10 hairless mice once a day in a frequency of 5 days a week and after 8 weeks formation of wrinkles on the back skin due to photoaging was confirmed. Thereafter, 100 μl of ethanol solutions containing the aromatic compound derivatives of triterpenoid obtained in the Production Examples in concentrations shown in Table 3 were applied thereon once a day in a frequency of 5 days a week. After 9 weeks from the initiation of applying, the degree of ameliorating wrinkles in the skin due to photoaging were evaluated with naked eyes according to the following evaluation criteria.
# −: No wrinkle-ameliorating effect was observed.
# ±: Slight wrinkle-ameliorating effect was observed.
# +: Wrinkle-ameliorating effect was observed.
# For comparison, ethanol solutions containing of palmitoyl oleanolate or 2-ethylhexyl 2-ethylhexanoyl ursolate in 1% concentration, hitherto used as drugs having a photoaging inhibiting effect, and neat ethanol as a control were applied to hairless mice after UVB irradiation in the same manner as described above and wrinkle-ameliorating effects were evaluated, respectively.
# Hartley guinea pigs [3] = assay: Skin irritation test (24 hours' closed patch test)
# Source text: Skin irritation tests of benzyl ursolate, methoxybenzyl oleanolate, nitrobenzyl betulate, naphthylmethyl ursolate, diphenylmethyl oleanolate, benzoyl oleanolate, methoxybenzoyl betulate, and phenylpropionyl ursolate obtained in the above-described Production Examples were made using Hartley guinea pigs (300 to 500 g, female) as test animals.
# For test groups each consisting of 6 guinea pigs, the hair on the back of each guinea pig was removed or shaven and on the hair-removed or shaven portion was applied a plastic adhesive plaster which a cloth patch of 15 mm in diameter impregnated with 50 mg of white vaseline containing a 10% by weight of one of the aromatic compound derivatives of triterpenoid obtained in the Production Examples described above was attached, and then 24 hours' closed patch test was performed. After the closed patch tests were completed, the resulting skin reactions after the removal of the plastic adhesive plasters were evaluated immediately (after 0 hour) and after 24 hours respectively, according to the evaluation criteria below and an average score was calculated based on the results obtained 6 animals in each test group.
# as §1, §2, §3, §4
# As a control, the above-described test and evaluation were conducted with only white vaseline.
# [4] = 3%-challenge patch, 3 w/v % in olive oil
# [5] = skin reaction 24 hours after plaster removal, 10% by weight in white vaseline, 24 hours' closed patch, average of 6 guinea pigs, scale 0-4
# [6] = skin reaction immediately after plaster removal, 10% by weight in white vaseline, 24 hours' closed patch, average of 6 guinea pigs, scale 0-4
Molecule,"Evaluation Score (Average), 3%-induced group (Hartley guinea pigs [1]; 0.3%-challenge patch)","Evaluation Score (Average), Olive oil induced group (Hartley guinea pigs [1]; 0.3%-challenge patch)","Evaluation Score (Average), 0.3%-induced group (Hartley guinea pigs [1]; 0.3%-sensitized group)","Evaluation Score (Average), 3%-induced group (Hartley guinea pigs [1]; [4])","Evaluation Score (Average), Olive oil induced group (Hartley guinea pigs [1]; 3%-challenge patch)","Evaluation Score (Average), 0.3%-induced group (Hartley guinea pigs [1]; 3%-sensitized group)","Evaluation Score (Average), 3%-induced group (Hartley guinea pigs [1]; Olive oil-challenge patch)","Evaluation Score (Average), 0.3%-induced group (Hartley guinea pigs [1]; Olive oil-sensitized group)",Score (Average) After 24 hours (Hartley guinea pigs [3]; [5]),Score (Average) After 0 hour (Hartley guinea pigs [3]; [6]),also measured
"CC1(C)CC[C@]2(C(=O)O)CC[C@]3(C)C(=CC[C@@H]4[C@@]5(C)CC[C@H](OC(=O)c6ccccc6)C(C)(C)[C@@H]5CC[C@]43C)[C@@H]2C1 [Benzoyl oleanolate, benzoyl oleanolate]",0,0,0,0,0,0,0,0,0,0,Number of Mice (number) + ([2]; 0.01 w/v% in ethanol): 6 number; Number of Mice (number) ± ([2]; 0.01 w/v% in ethanol): 4 number; Number of Mice (number) − ([2]; 0.01 w/v% in ethanol): 0 number
naphthylmethyl ursolate,,,,,,,,,0,0,
"C[C@H]1[C@H](C)CC[C@]2(C(=O)O)CC[C@]3(C)C(=CC[C@@H]4[C@@]5(C)CC[C@H](OC(=O)CCc6ccccc6)C(C)(C)[C@@H]5CC[C@]43C)[C@H]12 [Phenylpropionyl ursolate, phenylpropionyl ursolate]",0.17,0,0,0,0,0,0,0,0,0,Number of Mice (number) + ([2]; 0.05 w/v% in ethanol): 7 number; Number of Mice (number) ± ([2]; 0.05 w/v% in ethanol): 3 number; Number of Mice (number) − ([2]; 0.05 w/v% in ethanol): 0 number
"C=C(C)C1CCC2(C(=O)O)CCC3(C)C(CCC4C5(C)CCC(OC(=O)c6ccc(OC)cc6)C(C)(C)C5CCC43C)C12 (stereo not drawn) [Methoxybenzoyl betulate, methoxybenzoyl betulate]",,,,,,,,,,,"Number of Mice (number) + ([2]; 0.01 w/v% in ethanol): 8 number; Number of Mice (number) ± ([2]; 0.01 w/v% in ethanol): 2 number; Number of Mice (number) − ([2]; 0.01 w/v% in ethanol): 0 number; Score (Average) After 0 hour (Hartley guinea pigs [3]; guinea pig, in vivo): 0; Score (Average) After 24 hours (Hartley guinea pigs [3]; guinea pig, in vivo): 0"
"CCCCCCCCCCCCCCCC(=O)OC1CCC2(C)C(CCC3(C)C2CC=C2C4CC(C)(C)CCC4(C(=O)O)CCC23C)C1(C)C (stereo not drawn) [Palmitoyl oleanolate, palmitoyl oleanolate, reference compound]",,,,,,,,,,,Number of Mice (number) + ([2]; 1.0 w/v% in ethanol): 7 number; Number of Mice (number) ± ([2]; 1.0 w/v% in ethanol): 3 number; Number of Mice (number) − ([2]; 1.0 w/v% in ethanol): 0 number
"C=C(C)C1CCC2(C(=O)OCc3ccc([N+](=O)[O-])cc3)CCC3(C)C(CCC4C5(C)CCC(O)C(C)(C)C5CCC43C)C12 (stereo not drawn) [Nitrobenzyl betulate, nitrobenzyl betulate]",,,,,,,,,,,"Score (Average) After 0 hour (Hartley guinea pigs [3]; guinea pig, in vivo): 0; Score (Average) After 24 hours (Hartley guinea pigs [3]; guinea pig, in vivo): 0"
"CC1(C)CC[C@]2(C(=O)OC(c3ccccc3)c3ccccc3)CC[C@]3(C)C(=CC[C@@H]4[C@@]5(C)CC[C@H](O)C(C)(C)[C@@H]5CC[C@]43C)[C@@H]2C1 [Diphenylmethyl oleanolate, diphenylmethyl oleanolate]",,,,,,,,,0,0,
"C[C@H]1[C@H](C)CC[C@]2(C(=O)OCc3ccccc3)CC[C@]3(C)C(=CC[C@@H]4[C@@]5(C)CC[C@H](O)C(C)(C)[C@@H]5CC[C@]43C)[C@H]12 [Benzyl ursolate, benzyl ursolate]",0,0,0.17,0.17,0.33,0,0,0,0,0,"Number of Mice (number) + ([2]; 0.005 w/v% in ethanol, 100 μl once a day 5 days a week): 9 number; Number of Mice (number) ± ([2]; 0.005 w/v% in ethanol): 1 number; Number of Mice (number) − ([2]; 0.005 w/v% in ethanol): 0 number"
"COc1ccc(COC(=O)[C@]23CCC(C)(C)C[C@H]2C2=CC[C@@H]4[C@@]5(C)CC[C@H](O)C(C)(C)[C@@H]5CC[C@@]4(C)[C@]2(C)CC3)cc1 [Methoxybenzyl oleanolate, methoxybenzyl oleanolate]",0,0.17,0,0.33,0.17,0,0.17,0.17,0,0,Number of Mice (number) + ([2]; 0.01 w/v% in ethanol): 7 number; Number of Mice (number) ± ([2]; 0.01 w/v% in ethanol): 3 number; Number of Mice (number) − ([2]; 0.01 w/v% in ethanol): 0 number
"CCCCC(CC)COC(=O)[C@]12CC[C@@H](C)[C@H](C)[C@H]1C1=CC[C@@H]3[C@@]4(C)CC[C@H](OC(=O)C(CC)CCCC)C(C)(C)[C@@H]4CC[C@@]3(C)[C@]1(C)CC2 (stereo partly drawn) [2-Ethylhexyl 2-ethylhexanoyl ursolate, 2-ethylhexyl 2-ethylhexanoyl ursolate, reference compound]",,,,,,,,,,,Number of Mice (number) + ([2]; 1.0 w/v% in ethanol): 6 number; Number of Mice (number) ± ([2]; 1.0 w/v% in ethanol): 4 number; Number of Mice (number) − ([2]; 1.0 w/v% in ethanol): 0 number
"C=C(C)C1CCC2(C(=O)OCc3ccc(-c4ccccc4)cc3)CCC3(C)C(CCC4C5(C)CCC(O)C(C)(C)C5CCC43C)C12 (stereo not drawn) [Phenylbenzyl betulate, phenylbenzyl betulate]",,,,,,,,,,,Number of Mice (number) + ([2]; 0.05 w/v% in ethanol): 8 number; Number of Mice (number) ± ([2]; 0.05 w/v% in ethanol): 2 number; Number of Mice (number) − ([2]; 0.05 w/v% in ethanol): 0 number
